The text below walks through data of BindingDB's records for doi:10.1046/j.1471-4159.1997.69051810.x (Janssen Research Foundation, 1997).

pKi: −log10 of the molar value.

Assay [1] concerns the target 5-hydroxytryptamine receptor 4 (Cavia porcellus, UniProt O70528).
Assay [2] deals with 5-hydroxytryptamine receptor 4 (Homo sapiens, UniProt Q13639).
Sequence of 5-hydroxytryptamine receptor 4 (Homo sapiens, UniProt Q13639) (Q13639 whole entry): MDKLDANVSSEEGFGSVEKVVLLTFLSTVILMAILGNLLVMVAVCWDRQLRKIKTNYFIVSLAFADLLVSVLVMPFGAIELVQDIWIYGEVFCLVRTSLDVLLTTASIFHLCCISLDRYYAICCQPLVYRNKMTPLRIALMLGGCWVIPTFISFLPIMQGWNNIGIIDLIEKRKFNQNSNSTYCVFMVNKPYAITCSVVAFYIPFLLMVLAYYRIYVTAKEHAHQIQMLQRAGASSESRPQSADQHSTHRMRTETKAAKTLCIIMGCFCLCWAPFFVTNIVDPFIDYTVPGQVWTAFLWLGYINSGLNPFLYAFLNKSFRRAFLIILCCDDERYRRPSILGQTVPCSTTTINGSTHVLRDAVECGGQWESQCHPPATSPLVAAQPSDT

Sequence of 5-hydroxytryptamine receptor 4 (Cavia porcellus, UniProt O70528) (O70528 whole entry): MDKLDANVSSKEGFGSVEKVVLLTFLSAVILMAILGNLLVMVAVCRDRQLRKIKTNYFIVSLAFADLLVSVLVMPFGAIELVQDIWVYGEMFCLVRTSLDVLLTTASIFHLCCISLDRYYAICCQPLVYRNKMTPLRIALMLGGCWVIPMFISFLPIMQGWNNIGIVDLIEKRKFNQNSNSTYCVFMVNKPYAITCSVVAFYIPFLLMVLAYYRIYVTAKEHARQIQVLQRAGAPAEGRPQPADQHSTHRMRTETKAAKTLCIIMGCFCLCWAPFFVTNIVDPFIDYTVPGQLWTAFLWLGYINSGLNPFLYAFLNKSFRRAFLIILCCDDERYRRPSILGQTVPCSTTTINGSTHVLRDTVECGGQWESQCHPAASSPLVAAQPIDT

Broadly, the pKi is the Ki on a negative log10 scale, so that one unit is a factor of ten. Higher therefore signals a small Ki. With `CN1C2CCC1CC(OC(=O)c1c[nH]c3ccccc13)C2` (centres undefined), the negative-log Ki (pKi) in assay [1] was 6.70.

For the molecule `CCCCN1CCC(COC(=O)c2cc(Cl)c(N)c3c2OCCO3)CC1` [CAS_121881], the results for the pKi in assay [1] and in assay [2] were 10.15 and 10.00, respectively.

In the case of `Cn1cc(C(=O)OCC2CCN(CCNS(C)(=O)=O)CC2)c2ccccc21` [GR 113808], the figures for the pKi in assay [1] and in assay [2] were 9.41 and 9.60, respectively.

As for `COc1[nH]c2ccc(F)cc2c1C(=O)OCC1CCN(CCNS(C)(=O)=O)CC1` [GR-125487], the pKi in assay [1] was 9.72; in assay [2], 9.82.

Regarding `COc1ccc2[nH]cc(CCN)c2c1` [tryptamine, 5-Methoxy], the pKi in assay [1] was 6.60; in assay [2] it was 6.00.
